Data taken from patent US5484778A, “Phthalocyanine photosensitizers for photodynamic therapy and methods for their use” (priority 1993, dated 1996).

Experiments:
[1] = Retention in tumor tissue (pharmacokinetics); details: in vivo
[2] = system: human squamous cell carcinoma; test: PDT of human squamous cell carcinoma in athymic nude mice (Table 9); format: in vivo, Harlen-Sprague Dawley athymic nude mice; details: 1.0 mg/kg; for % Tumor Response: 24 hours post illumination; for % Tumor Cure: 7 days post treatment
Experimental: A single cell suspension of human squamous cell carcinoma was injected subcutaneously into the back of Harlen-Sprague Dawley athymic nude mice. […]

RIF-1 tumors [3] = test: Histology and DNA fragmentation in PDT-treated tumors; format: in vivo, C3H/HeN mice
[4] = system: Chinese hamster V79-379 cells; test: Growth delay of V79 cultures after red light (Table 1); format: cell-based
Method in brief: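 V79-379 lung fibroblasts were pretreated 18 h with phthalocyanines (0.5-1.0 μM final) or 1 μM AlPcCl, then irradiated in HBSS with >600 nm light at 12 kJ/m^2. Cells were counted over 3 days. Growth delay is the time for cell density to regain its level at irradiation, reported as a ratio to same-experiment AlPcCl.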

RIF-1 tumors [5] = test: PDT of RIF-1 implanted tumors (Table 7); format: in vivo, C3H/HeN mice; details: for effect on tumor volume / growth (in words): 1 mg/kg
Method in brief: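 C3H/HeN mice each carried one RIF-1 fibrosarcoma on the back and received 1 mg/kg phthalocyanine as a corn-oil suspension. Volume was measured daily by calipers from a 50±10 mm^3 start and calculated with the hemiellipsoid model.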

[6] = system: chemically-induced benign skin papillomas; test: PDT of chemically induced skin tumors in SENCAR mice (FIG. 4); format: in vivo; details: 0.5 and 1.0 mg/kg i.p. in DPPC liposomes
Experimental: 6-week-old female SENCAR mice received a single topical application of 5 μg DMBA in 0.2 ml acetone on the dorsal skin as tumor initiator. One week later, the animals were started on twice-weekly topical applications of 1 μg TPA in 0.2 ml acetone as tumor promoter. All of the animals developed tumors at 12 weeks. Mice that developed 4-5 tumors per animal averaging 5-8 mm in diameter and 2-5 mm in thickness were used. Pc IV, entrapped in DPPC liposomes was administered intraperitoneally at doses of either 0.5 or 1.0 mg/kg and 24 hrs later the tumor area was illuminated with light from an argon pumped dye laser tuned at 675 nm for a total light dose of 135 J/cm^2 (75 mW/cm^2). All possible controls were included; either the animals were untreated, treated only with laser light or treated only with Pc IV alone.

CN(C)CCC[Si](C)(C)O[Si]1(O)n2c3c4ccccc4c2N=C2N=C(N=c4c5ccccc5c(n41)=NC1=NC(=N3)c3ccccc31)c1ccccc12 (stereo not shown) [Compound IV, HOSiPcOsi(CH3)2)(CH2)3 N(CH3)2]
retention in tumor tissue after administration [1]: ≥ 7 days
% Tumor Response ([2]; 35 J/cm^2 675 nm, 15 min): 40%
% Tumor Cure ([2]; 35 J/cm^2 675 nm, 15 min): 0%
% Tumor Response ([2]; 75 J/cm^2 675 nm, 15 min): 80%
% Tumor Cure ([2]; 75 J/cm^2 675 nm, 15 min): 60%
% Tumor Response ([2]; 135 J/cm^2 675 nm, 15 min): 100%
% Tumor Cure ([2]; 135 J/cm^2 675 nm, 15 min): 100%
% Tumor Response ([2]; no light): 0%
% Tumor Cure ([2]; no light): 0%
apoptotic bodies in the tumor (RIF-1 tumors [3]; histological examination): presence of apoptotic bodies in the tumor
DNA fragment sizes, multiples of (RIF-1 tumors [3]; mouse, in vivo): 180-200 base pairs
Growth Delay, efficiency relative to 1 μM AlPcCl ([4]; 0.5 μM, 18 h, 12 kJ/m^2 red light): > 3
inhibition of V79 culture growth (in words) ([4]; red light 12 kJ/m^2, three day period): substantial inhibition
Doubling Time of Initial Tumor Volume after PDT (RIF-1 tumors [5]; 1 mg/kg in corn oil, 675 nm, 135 J/cm^2): 16 days
effect on tumor volume / growth (in words) (RIF-1 tumors [5]; listed as Pc IV): significantly impair the growth of the tumors
effect on tumor volume / growth (in words) (RIF-1 tumors [5]; listed as PcIV): particularly effective in reducing tumor volume
tumor regrowth (RIF-1 tumors [5]; after PDT, from the tumor margins): regrowth of tumors from the tumor margins occurred
tumor volume (eventual) ([6]; 675 nm, 135 J/cm^2): 0
tumor recurrence ([6]; 34 days): did not return for the length of the study, 34 days
